Experimental data taken from patent US6942870B2, “Compositions and methods using direct MMP inhibitors for inhibiting photoaging of skin” (The Regents of the University of Michigan, priority 1997, dated 2005).
Entries after “also recorded” stand apart in the source; their conditions may differ.

Tests used:
[1] = tested on: human skin; assay: UV-induced erythema (skin reddening) of human skin after topical pretreatment, chromameter; format: in vivo; details: for prevention of UV-induced erythema: 5% topical, applied about seven hours prior to UV exposure, vs vehicle-treated skin; for inhibition of UV-induced erythema: 2 MED, 20% NAC or 5% FDO pretreatment; for protection against UV-induced erythema / reduction in erythema: 5% ASA or 3.5% vit. C applied 16 hours prior to exposure; for reduction in erythema: vs untreated (vehicle-only) skin
Description: (§1) In the following examples, four F36T12 ERE-VHO UV bulbs were used to irradiate human skin. At all times, a Kodocel TA401/407 filter was mounted 4 cm in front of the bulbs to remove UVC radiation (<290 nm). Radiation intensity was monitored using an IL443 phototherapy radiometer and an SED240/UVB/W photodetector (International Light, Newbury, Mass.). Spectroradiometry was performed using an Optronic Labroatories OL 754 system. Total irradiance (290-800 nm) at about 43 cm (17 in.) from the source of four bulbs was about 1.5 mJ/cm^2·s (1.49×10^−3 W/cm^2). The radiation output from this bulb was determined by spectroradiometry to provide about 47% UVB and about 27% UVA (composed of about 9% UVA1 (340-400 nm) and about 18% UVA2 (320-340 nm)), the remainder being visible and IR radiation. An exposure of about 160 seconds under this set of four bulbs is equivalent to an exposure of one MED. Accordingly, when compared with natural sunlight which has 0.5% UVB and 6.5% UVA, it can be seen that the set of four bulbs used in these experiments provides far less UVA radiation than would exposure to the sun of an equivalent amount of UVB.
(§2) In the following examples, a “standard vechicle” of 30% PEG (polyethylene glycol) in 70% ethanol (with 0.05% BHT as preservative) was used. […] MMP activities were measured by zymography.
Chromameter: erythema (skin reddening) was determined 24 h post-exposure using a commercially available Minolta chromameter (chromameter CR200, model 94401085).

[2] = tested on: type I collagenase; assay: Type I collagenase activity/level in biopsies of UV-exposed human skin; format: in vivo; details: for inhibition of UV-induced collagenase activity: about 2 MED, 5% topical, about seven hours prior to exposure; for protection against UV-induced type I collagenase activity: 2 MED, 20% NAC or 5% FDO pretreatment; for collagenase activity after UV exposure: 5% ASA applied 16 hours prior to exposure; for inhibition of UV-induced increase in collagenase activity: 20% NAC
Description: as §1, §2
Matrix metalloproteinase assays. Tissue pieces were frozen in liquid nitrogen immediately after biopsy, homogenized in 20 mM Tris HCl (pH 7.6) plus 5 mM CaCl2, and centrifuged at 3000×g for 10 minutes to remove particulates. Ability to release soluble radioactive fragments from 3H-labeled fibrillar Type I collagen (described by Fisher, G. J., et al., Nature, 379, 335-339 (1996) and Hu, C-L, et al., Analytic. Biochem, 88, 638-643 (1978)) was used as a measure of collagenolytic activity. […] Subsequently, 0.2 μCi of collagen substrate (NEN-DuPont, Boston, Mass.) was incubated for 24 hours with 50 μl of tissue extract. At the end of the 24-hour incubation period, the samples were centrifuged at 12,000×g for 10 minutes to pellet the intact protein. Radioactivity remaining in the supernatant fluid was then measured and from this, the percentage of substrate hydrolzyed was determined.

[3] = tested on: 92 KDa gelatinase; assay: 92 kDa gelatinase activity/level in biopsies of UV-exposed human skin (gelatin zymography); format: in vivo; details: for inhibition of UV-induced 92 KDa gelatinase activity: 5% topical, about seven hours prior to exposure; for inhibition of UV-induced increase in 92 KDa gelatinase activity: 1 MED, 20% NAC
Description: as §1, §2
Gelatin zymography (Varani et al., op. cit.) was used to assess MMP-2 (72-kD gelatinase; gelatinase A) and MMP9 (92-kD gelatinase; gelatinase B) activity. Tissue extracts were electrophoresed in an 8.5% SDS-polyacrylamide gel containing 1 mg/ml of gelatin. After electrophoresis, the SDS was removed by three sequential washes in 1% Triton X-100. The first two washes were for 20 minutes each and the last was overnight. Quantitation of hydrolysis zone width was done by laser densitometry.

[4] = UV absorbance characteristics of UVA blocker over UVA1, UVA2 and UVB wavelengths; format: physicochemical
Text: We investigated the effect of pretreatment of skin with a known UVA blocker on both erythema and MMP activity after exposure to 2 MEDs of UV radiation. In particular, we used PARSOL® 1789 (also known as PARSOL A) brand of 4-t-butyl-4′-methoxydibenzoylmethane, which is described in U.S. Pat. No. 4,387,089 (the disclosure of which is incorporated herein by reference). (PARSOL MCX and PARSOL MOX are trademarks for 2-ethylhexyl p-methoxycinnamate, a UVB blocker commonly used in commercial sunscreen, and disclosed in U.S. Pat. No. 4,713,473, the disclosure of which is incorporated herein by reference). The absorbance characteristics of PARSOL® 1789 over the UVA1, UVA2, and UVB wavelengths is shown as the dotted line in FIG. 8A.

[5] = about 2 MED, 5% PARSOL 1789 pretreatment

vitamin E
prevention of UV-induced erythema ([1]; about 2 MED): significantly reduced the erythema | prevention of UV-induced erythema ([1]; about 2 MED, listed as Vitamin E): slightly worse but still very effective at preventing erythema | inhibition of UV-induced collagenase activity [2]: neither melatonin nor vitamin E (both with pretreatment) prevented induction of MMPs; also recorded: did not function to inhibit the increased MMP activity | inhibition of UV-induced 92 KDa gelatinase activity ([3]; about 2 MED): neither melatonin nor vitamin E (both with pretreatment) prevented induction of MMPs; also recorded: did not function to inhibit the increased MMP activity

O/N=C(/C(=N/O)c1ccco1)c1ccco1 [FDO, 2-furildioxime]
inhibition of UV-induced erythema [1]: effective at preventing erythema; also recorded: completely inhibited erythema | protection against UV-induced type I collagenase activity [2]: some protection against MMP induction

COc1ccc2[nH]cc(CCNC(C)=O)c2c1 [melatonin]
prevention of UV-induced erythema ([1]; about 2 MED): significantly reduced the erythema | prevention of UV-induced erythema ([1]; about 2 MED, listed as Melatonin): does appear to prevent erythema | inhibition of UV-induced collagenase activity [2]: neither melatonin nor vitamin E (both with pretreatment) prevented induction of MMPs; also recorded: did not function to inhibit the increased MMP activity | inhibition of UV-induced 92 KDa gelatinase activity ([3]; about 2 MED): neither melatonin nor vitamin E (both with pretreatment) prevented induction of MMPs; also recorded: did not function to inhibit the increased MMP activity

CC(=O)Oc1ccccc1C(=O)O [ASA, acetyl salicylic acid]
protection against UV-induced erythema ([1]; 1 MED): provided protection against erythema | protection against UV-induced erythema ([1]; 1 MED, listed as aspirin): reduced the UV-induced erythema | reduction in erythema ([1]; 1 MED): about 30% | collagenase activity after UV exposure ([2]; 1 MED, vs untreated skin): not effective at preventing elevated collagenase activity | collagenase activity after UV exposure ([2]; 1 MED, vs untreated skin, listed as aspirin): greater collagenase activity than untreated skin

COc1ccc(C(=O)CC(=O)c2ccc(C(C)(C)C)cc2)cc1 [PARSOL® 1789, 4-t-butyl-4′-methoxydibenzoylmethane]
protection from UV-induced erythema (sunburn) [1, 5]: does provide some protection | blocking of UVA1 radiation (absorbance) ([4]; UVA1 wavelengths): somewhat effective at blocking UVA1 radiation | blocking of UVA2 radiation (absorbance) ([4]; UVA2 wavelengths): especially useful at blocking UVA2 radiation | gelatinase activity vs UV-exposed vehicle-treated skin [3, 5]: significantly reduced | gelatinase activity vs vehicle-treated unexposed skin [3, 5]: not significantly different from vehicle-treated unexposed skin

CC1=C(/C=C/C(C)=C/C=C/C(C)=C/CO)C(C)(C)CCC1 [retinol]
prevention of UV-induced elevation in type I collagenase activity ([2]; suberythemal 0.5 MED, 0.1% retinoic acid or 1% retinol pretreatment): about as effective as retinoic acid

CC(=O)N[C@@H](CS)C(=O)O [NAC, N-acetyl cysteine]
anti-redness effect on UV-exposed skin ([1]; 1 MED, 20% NAC, four or seven hours prior to exposure): no anti-redness effect | inhibition of UV-induced erythema [1]: no effect against erythema | inhibition of UV-induced increase in collagenase activity ([2]; 1 MED, four hour pretreatment): ineffective | inhibition of UV-induced increase in collagenase activity ([2]; 1 MED, seven hour pretreatment): provided an inhibitory effect | protection against UV-induced type I collagenase activity [2]: effective at preventing increased MMP activity; also recorded: significant protection against collagenase activity | inhibition of UV-induced increase in 92 KDa gelatinase activity ([3]; four hour pretreatment): ineffective | inhibition of UV-induced increase in 92 KDa gelatinase activity ([3]; seven hour pretreatment): provided an inhibitory effect

O=C1O[C@H]([C@@H](O)CO)C(O)=C1O [vitamin C, ascorbic acid]
protection against UV-induced erythema ([1]; 1 MED): provided protection against erythema; also recorded: reduced the UV-induced erythema | reduction in erythema ([1]; 1 MED): about 30% | reduction in collagenase activity ([2]; 1 MED, 3.5% vit. C applied 16 hours prior to exposure, vs untreated skin): ~25%
